Legend:
Experiment in all cases: relative viability (nuclei count vs DMSO), 5 days (fraction); higher = more cells survive
Settings in all cases: main component drawn
Bleomycin + OSI-027 = compound: CC1=C(N=C(N=C1N)[C@H](CC(=O)N)NC[C@@H](C(=O)N)N)C(=O)N[C@@H]([C@H](C2=CN=CN2)OC3C(C(C(C(O3)CO)O)O)OC4C(C(C(C(O4)CO)O)OC(=O)N)O)C(=O)N[C@H](C)[C@H]([C@H](C)C(=O)N[C@@H]([C@@H](C)O)C(=O)NCCC5=NC(=CS5)C6=NC(=CS6)C(=O)NCCC[S+](C)C)O [Bleomycin] + COc1cccc2cc(-c3nc([C@H]4CC[C@H](C(=O)O)CC4)n4ncnc(N)c34)[nH]c12 [OSI-027] (partner 0.5 µM)
In short: (§1)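 Medians of duplicate plates are given as relative viability. That measure is the nuclei count in treated wells divided by the count in vehicle wells. Counts were taken on 4× images of lung cancer cell lines in 1536-well plates, 5 days after pin-tool dosing the day after seeding with one drug alone or a fixed anchor-drug dose plus five library-drug doses (not always all listed) in √10 steps.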

Bleomycin + Tozasertib = compound: CC1=C(N=C(N=C1N)[C@H](CC(=O)N)NC[C@@H](C(=O)N)N)C(=O)N[C@@H]([C@H](C2=CN=CN2)OC3C(C(C(C(O3)CO)O)O)OC4C(C(C(C(O4)CO)O)OC(=O)N)O)C(=O)N[C@H](C)[C@H]([C@H](C)C(=O)N[C@@H]([C@@H](C)O)C(=O)NCCC5=NC(=CS5)C6=NC(=CS6)C(=O)NCCC[S+](C)C)O [Bleomycin] + Cc1cc(Nc2cc(N3CCN(C)CC3)nc(Sc3ccc(NC(=O)C4CC4)cc3)n2)n[nH]1 [Tozasertib] (partner 0.1 µM)
In short: as §1

Bleomycin + Linsitinib = compound: CC1=C(N=C(N=C1N)[C@H](CC(=O)N)NC[C@@H](C(=O)N)N)C(=O)N[C@@H]([C@H](C2=CN=CN2)OC3C(C(C(C(O3)CO)O)O)OC4C(C(C(C(O4)CO)O)OC(=O)N)O)C(=O)N[C@H](C)[C@H]([C@H](C)C(=O)N[C@@H]([C@@H](C)O)C(=O)NCCC5=NC(=CS5)C6=NC(=CS6)C(=O)NCCC[S+](C)C)O [Bleomycin] + C[C@]1(O)C[C@@H](c2nc(-c3ccc4ccc(-c5ccccc5)nc4c3)c3c(N)nccn32)C1 [Linsitinib] (partner 1 µM)
In short: as §1

Bleomycin + Pictilisib = compound: CC1=C(N=C(N=C1N)[C@H](CC(=O)N)NC[C@@H](C(=O)N)N)C(=O)N[C@@H]([C@H](C2=CN=CN2)OC3C(C(C(C(O3)CO)O)O)OC4C(C(C(C(O4)CO)O)OC(=O)N)O)C(=O)N[C@H](C)[C@H]([C@H](C)C(=O)N[C@@H]([C@@H](C)O)C(=O)NCCC5=NC(=CS5)C6=NC(=CS6)C(=O)NCCC[S+](C)C)O [Bleomycin] + CS(=O)(=O)N1CCN(Cc2cc3nc(-c4cccc5[nH]ncc45)nc(N4CCOCC4)c3s2)CC1 [Pictilisib] (partner 1 µM)
In short: as §1

Cell Line | relative viability (Bleomycin + OSI-027; first compound 0.01 µM) | relative viability (Bleomycin + OSI-027; first compound 0.03162 µM) | relative viability (Bleomycin + OSI-027; first compound 0.1 µM) | relative viability (Bleomycin + OSI-027; first compound 0.3162 µM) | relative viability (Bleomycin + OSI-027; first compound 1 µM) | relative viability (Bleomycin + Tozasertib; first compound 0.01 µM) | relative viability (Bleomycin + Tozasertib; first compound 0.03162 µM) | relative viability (Bleomycin + Tozasertib; first compound 0.1 µM) | relative viability (Bleomycin + Tozasertib; first compound 0.3162 µM) | relative viability (Bleomycin + Tozasertib; first compound 1 µM) | relative viability (Bleomycin + Linsitinib; first compound 0.01 µM) | relative viability (Bleomycin + Linsitinib; first compound 0.03162 µM) | relative viability (Bleomycin + Linsitinib; first compound 0.1 µM) | relative viability (Bleomycin + Linsitinib; first compound 0.3162 µM) | relative viability (Bleomycin + Linsitinib; first compound 1 µM) | relative viability (Bleomycin + Pictilisib; first compound 0.01 µM) | relative viability (Bleomycin + Pictilisib; first compound 0.03162 µM) | relative viability (Bleomycin + Pictilisib; first compound 0.1 µM) | relative viability (Bleomycin + Pictilisib; first compound 0.3162 µM) | relative viability (Bleomycin + Pictilisib; first compound 1 µM)
NCI-H2405 | 0.617 | 0.596 | 0.567 | 0.477 | 0.346 | 0.703 | 0.758 | 0.682 | 0.475 | 0.398 | 0.745 | 0.834 | 0.69 | 0.373 | 0.341 | 0.45 | 0.417 | 0.42 | 0.254 | 0.202
NCI-H3122 | 0.917 | 1.03 | 0.76 | 0.262 | 0.261 | 0.337 | 0.281 | 0.324 | 0.177 | 0.166 | 1.05 | 1.03 | 1.01 | 0.744 | 0.457 | 0.642 | 0.591 | 0.577 | 0.243 | 0.36
PC-3 [JPC-3] | 0.687 | 0.789 | 0.648 | 0.506 | 0.41 | 0.799 | 0.813 | 0.781 | 0.537 | 0.492 | 0.865 | 0.944 | 0.847 | 0.723 | 0.53 | 0.681 | 0.681 | 0.768 | 0.569 | 0.466
PC-14 | 0.439 | 0.435 | 0.114 | 0.0634 | 0.0557 | 0.335 | 0.275 | 0.145 | 0.0771 | 0.05 | 0.578 | 0.51 | 0.309 | 0.118 | 0.119 | 0.369 | 0.259 | 0.159 | 0.0359 | 0.0457
RERF-LC-KJ | 0.378 | 0.364 | 0.314 | 0.244 | 0.239 | 0.311 | 0.339 | 0.297 | 0.234 | 0.193 | 0.617 | 0.502 | 0.502 | 0.233 | 0.22 | 0.269 | 0.433 | 0.316 | 0.188 | 0.167
SK-LU-1 | 0.338 | 0.417 | 0.366 | 0.272 | 0.206 | 0.295 | 0.35 | 0.363 | 0.235 | 0.215 | 0.821 | 0.921 | 0.929 | 0.471 | 0.39 | 0.434 | 0.638 | 0.474 | 0.352 | 0.282
SK-MES-1 | 0.506 | 0.588 | 0.57 | 0.262 | 0.16 | 0.531 | 0.542 | 0.35 | 0.15 | 0.134 | 0.923 | 0.974 | 0.819 | 0.287 | 0.216 | 0.432 | 0.274 | 0.307 | 0.201 | 0.116
SW 1573 | 0.566 | 0.407 | 0.382 | 0.258 | 0.169 | 0.141 | 0.184 | 0.17 | 0.129 | 0.161 | 0.705 | 0.567 | 0.417 | 0.311 | 0.176 | 0.43 | 0.361 | 0.459 | 0.254 | 0.174
